Results on eight molecules are retold here after ChEMBL document CHEMBL1130722, “Synthesis of gem-difluoro-avermectin derivatives: potent anthelmintic and anticonvulsant agents” (1998).

As a reminder, the ED50 is the midpoint of the dose-response relation. A higher ED50 goes with a need for a large dose.

Some results are limits rather than exact numbers.

Common to all, as to assay type: functional
The species named for test [1] is Mus musculus. Put plainly: Compound was tested for the anticonvulsant activity in pentamethylenetetrazole mouse epilepsy model.
For test [2], the species on record is Mus musculus. Put plainly: Compound was tested for the sedative effect by using mouse rotarod test. The note with it: for minimal effective dose: read-out: MED. In general terms: The rotarod test checks motor coordination on a turning rod.
Test [3] relates to Haemonchus contortus. Put plainly: Compound was tested for the anthelmintic efficacy by using Haemonchus contortus larval assay.
Test [4] deals with Artemia salina. Put plainly: Compound was tested for the antiparasitic activity by using Artemia salina (brine shrimp) immobilization assay.

Molecule IVERMECTIN showed an ED50 in test [1] of 28.2 mg/kg. The molecule also showed an MED in test [2] greater than 300 mg/kg. The IC100 turned out to be 10 ng/mL in test [3] and 430 ng/mL in test [4].

Take `CCC(C)[C@H]1O[C@@]2(C[C@@H]3C[C@@H](C/C=C(\C)[C@@H](O[C@H]4C[C@H](OC)[C@@H](O[C@H]5C[C@H](OC)[C@@H](O)[C@H](C)O5)[C@H](C)O4)[C@@H](C)/C=C/C=C4\CO[C@@H]5[C@H](O)C(C)=C[C@@H](C(=O)O3)[C@]45O)O2)CC(F)(F)[C@@H]1C` (stereo partly drawn): the ED50 in test [1] came out at 9 mg/kg. Besides, the minimal effective dose in test [2] was greater than 40 mg/kg. Also, the IC100 is 10 ng/mL in test [3] and 13009 ng/mL in test [4].

In the case of `CN1C(=O)CN=C(c2ccccc2)c2cc(Cl)ccc21` [DIAZEPAM], it took a dose of 0.26 mg/kg to reach the 50% effect level in test [1] (ED50). Further, in test [2], the minimal effective dose is 3 mg/kg.

`CCC(C)[C@H]1O[C@@]2(C[C@@H]3C[C@@H](C/C=C(\C)[C@@H](O[C@H]4C[C@H](OC)[C@@H](O[C@H]5C[C@H](OC)[C@@H](O)[C@H](C)O5)[C@H](C)O4)[C@@H](C)/C=C/C=C4\CO[C@@H]5[C@H](OC)C(C)=C[C@@H](C(=O)O3)[C@]45O)O2)CC(F)(F)[C@@H]1C` (stereo partly drawn) had an IC100 in test [3] of 10 ng/mL.

In turn, `CCC(C)[C@H]1O[C@]2(C=C[C@@H]1C)C[C@@H]1C[C@@H](C/C=C(\C)[C@@H](O[C@H]3C[C@H](OC)C(F)(F)[C@H](C)O3)[C@@H](C)/C=C/C=C3\CO[C@@H]4[C@H](O)C(C)=C[C@@H](C(=O)O1)[C@]34O)O2` (stereo partly drawn) came in with an IC100 in test [3] of 10 ng/mL.

For the molecule `CCC(C)[C@H]1O[C@]2(C=C[C@@H]1C)C[C@@H]1C[C@@H](C/C=C(\C)[C@@H](O[C@H]3C[C@H](OC)[C@@H](O[C@H]4C[C@H](OC)[C@H](O)[C@H](C)O4)[C@H](C)O3)[C@@H](C)/C=C/C=C3\CO[C@@H]4[C@H](O)C(C)=C[C@@H](C(=O)O1)[C@]34O)O2` (stereo partly drawn), the IC100 worked out at 28.2 ng/mL in test [1] and 430 ng/mL in test [4].

For the molecule `CCC(C)[C@H]1O[C@]2(C=C[C@@H]1C)C[C@@H]1C[C@@H](C/C=C(\C)[C@@H](O[C@H]3C[C@H](OC)[C@@H](O[C@H]4C[C@H](OC)C(F)(F)[C@H](C)O4)[C@H](C)O3)[C@@H](C)/C=C/C=C3\CO[C@@H]4[C@H](O)C(C)=C[C@@H](C(=O)O1)[C@]34O)O2` (stereo partly drawn), the IC100 in test [3] is 10 ng/mL; in test [4] it was 5200 ng/mL.

Regarding `CCC(C)[C@H]1O[C@]2(C=C[C@@H]1C)C[C@@H]1C[C@@H](C/C=C(\C)C(F)(F)[C@@H](C)/C=C/C=C3\CO[C@@H]4[C@H](O)C(C)=C[C@@H](C(=O)O1)[C@]34O)O2` (stereo partly drawn), the IC100 was 10 ng/mL in test [3] and 325 ng/mL in test [4].
